Earlier results on 55 molecules are cited in PMC11220795 (Molecular Pharmaceutics, 2024).

For the first data set the following is noted: decadic logarithm of molar solubility in MCTs; ref Alsenz, J. and Kuentz, M., 2019; cited from earlier work.
For the molecule `COc1ccc2c(c1)c(CC(=O)OCC(=O)O)c(C)n2C(=O)c1ccc(Cl)cc1` [acemetacin], the “log10 S [M]” value is -2.33 M.
`CCCSc1ccc2nc(NC(=O)OC)[nH]c2c1` [albendazole]: the “log10 S [M]” value was -2.91 M.
As to `Cc1ccccc1-c1cc(N2CCOCC2)ncc1N(C)C(=O)C(C)(C)c1cc(C(F)(F)F)cc(C(F)(F)F)c1` [befetupitant], the “log10 S [M]” value is -1.08 M.
Take `CC(=O)Oc1ccc(C(c2ccc(OC(C)=O)cc2)c2ccccn2)cc1` [bisacodyl]: the “log10 S [M]” value is listed as -2.22 M.
Turning to `Clc1ccccc1C(c1ccccc1)(c1ccccc1)n1ccnc1` [clotrimazole], the “log10 S [M]” value is listed as -1.45 M.
As for `COc1cc2c(c(OC)c1OC)-c1ccc(OC)c(=O)cc1[C@@H](NC(C)=O)CC2` [colchicine], the “log10 S [M]” value is reported as -2.34 M.
With `C[C@@H]1C[C@H]2[C@@H]3CCC4=CC(=O)C=C[C@]4(C)[C@@]3(F)[C@@H](O)C[C@]2(C)[C@@]1(O)C(=O)CO` [dexamethasone], the “log10 S [M]” value is reported as -3.21 M.
`O=C1[C@H](CC[C@H](O)c2ccc(F)cc2)[C@@H](c2ccc(O)cc2)N1c1ccc(F)cc1` [ezetimibe]: the “log10 S [M]” value is -2.16 M.
Regarding `CC(C(=O)O)c1ccc(-c2ccccc2)c(F)c1` (stereo not shown) [flurbiprofen], the “log10 S [M]” value is given as -0.86 M.
Take `NS(=O)(=O)c1cc(C(=O)O)c(NCc2ccco2)cc1Cl` [furosemide]: the “log10 S [M]” value is on record as -3.18 M.
Turning to `COc1ccc(Cl)cc1C(=O)NCCc1ccc(S(=O)(=O)NC(=O)NC2CCCCC2)cc1` [glibenclamide], the “log10 S [M]” value is given as -3.62 M.
In the case of `COC1=CC(=O)C[C@@H](C)[C@]12Oc1c(Cl)c(OC)cc(OC)c1C2=O` [griseofulvin], the “log10 S [M]” value is listed as -2.59 M.
Regarding `O=C(CCCN1CCC(O)(c2ccc(Cl)cc2)CC1)c1ccc(F)cc1` [haloperidol], the “log10 S [M]” value is -2.38 M.
As for `CC(=O)OCC(=O)[C@@]1(O)CC[C@H]2[C@@H]3CCC4=CC(=O)CC[C@]4(C)[C@H]3[C@@H](O)C[C@@]21C` [hydrocortisone acetate], the “log10 S [M]” value was -3.54 M.
`CC(C)Cc1ccc(C(C)C(=O)O)cc1` (stereo not shown) [ibuprofen]: the “log10 S [M]” value is -0.82 M.
Turning to `COc1ccc2c(c1)c(CC(=O)O)c(C)n2C(=O)c1ccc(Cl)cc1` [indomethacin], the “log10 S [M]” value is given as -2.01 M.
In the case of `CC(=O)N1CCN(c2ccc(OCC3COC(Cn4ccnc4)(c4ccc(Cl)cc4Cl)O3)cc2)CC1` (stereo not shown) [ketoconazole], the “log10 S [M]” value was -2.90 M.
As for `CCN(CC)CC(=O)Nc1c(C)cccc1C` [lidocaine], the “log10 S [M]” value is reported as -0.71 M.
`Cc1cccc(Nc2ccccc2C(=O)O)c1C` [mefenamic acid]: the “log10 S [M]” value was -1.97 M.
With `CC(C)(C)NCC(O)COc1cccc2c1CC(O)C(O)C2` (stereo not shown) [nadolol], the “log10 S [M]” value was -3.23 M.
Consider `CC(=O)Nc1ccc(O)cc1` [paracetamol], for which the “log10 S [M]” value was -2.50 M.
For `O=C1NC(=O)C(c2ccccc2)(c2ccccc2)N1` [phenytoin], the “log10 S [M]” value is listed as -3.00 M.
Take `CN1C(C(=O)Nc2ccccn2)=C(O)c2ccccc2S1(=O)=O` [piroxicam]: the “log10 S [M]” value is recorded as -2.25 M.
As to `CCCN(CCC)S(=O)(=O)c1ccc(C(=O)O)cc1` [probenecid], the “log10 S [M]” value is recorded as -2.16 M.
As for `CC(=O)[C@H]1CC[C@H]2[C@@H]3CCC4=CC(=O)CC[C@]4(C)[C@H]3CC[C@]12C` [progesterone], the “log10 S [M]” value was -1.05 M.
For the molecule `CCc1nc(N)nc(N)c1-c1ccc(Cl)cc1` [pyrimethamine], the “log10 S [M]” value is listed as -2.65 M.
With `Nc1ccc(S(=O)(=O)Nc2ccnn2-c2ccccc2)cc1` [sulfaphenazole], the “log10 S [M]” value is -3.03 M.
Regarding `O=C(O)c1cc(/N=N/c2ccc(S(=O)(=O)Nc3ccccn3)cc2)ccc1O` [sulfasalazine], the “log10 S [M]” value is reported as -4.24 M.
Take `O=C1C(CC[S+]([O-])c2ccccc2)C(=O)N(c2ccccc2)N1c1ccccc1` (stereo not shown) [sulfinpyrazone]: the “log10 S [M]” value was -2.33 M.
Turning to `C[C@]12CC[C@H]3[C@@H](CCC4=CC(=O)CC[C@@]43C)[C@@H]1CC[C@@H]2O` [testosterone], the “log10 S [M]” value is -1.56 M.
Turning to `CCCCNC(=O)NS(=O)(=O)c1ccc(C)cc1` [tolbutamide], the “log10 S [M]” value is listed as -1.85 M.
With `CC(=O)CC(c1ccccc1)c1c(O)c2ccccc2oc1=O` (stereo not shown) [warfarin], the “log10 S [M]” value is -2.14 M.
Take reserpine: the “log10 S [M]” value is reported as -3.06 M.

The data set is the same for the next values; noted with them: decadic logarithm of molar solubility in MCTs; ref Alskär, L.C., Porter, C.J. and Bergström, C.A., 2016; cited from earlier work.
Take `COc1cc(C)c(/C=C/C(C)=C/C=C/C(C)=C/C(=O)O)c(C)c1C` [acitretin]: the “log10 S [M]” value was -3.13 M.
Turning to `CCOc1nc2cccc(C(=O)OC(C)OC(=O)OC3CCCCC3)c2n1Cc1ccc(-c2ccccc2-c2nnn[nH]2)cc1` (stereo not shown) [candesartan cilexetil], the “log10 S [M]” value is given as -2.93 M.
With `CCOc1nc2cccc(C(=O)O)c2n1Cc1ccc(-c2ccccc2-c2nnn[nH]2)cc1` [candesartan], the “log10 S [M]” value is recorded as -4.64 M.
Regarding `O=C(O)c1cc(-c2ccc(F)cc2F)ccc1O` [diflunisal], the “log10 S [M]” value was -1.18 M.
In the case of `OCCN(CCO)c1nc(N2CCCCC2)c2nc(N(CCO)CCO)nc(N3CCCCC3)c2n1` [dipyridamole], the “log10 S [M]” value is on record as -3.56 M.
Turning to `CCN(CC)C(=S)SSC(=S)N(CC)CC` [disulfiram], the “log10 S [M]” value is -0.73 M.
For the molecule `C#C[C@]1(O)CC[C@H]2[C@@H]3CCc4cc(O)ccc4[C@H]3CC[C@@]21C` [ethinylestradiol], the “log10 S [M]” value is listed as -0.83 M.
In the case of `CCOC(=O)C1=C(C)NC(C)=C(C(=O)OC)C1c1cccc(Cl)c1Cl` (stereo not shown) [felodipine], the “log10 S [M]” value was -1.16 M.
On to `COC(=O)Nc1nc2ccc(Sc3ccccc3)cc2[nH]1` [fenbendazole], for which the “log10 S [M]” value was -3.20 M.
In the case of `CC(C)(Oc1ccc(C(=O)c2ccc(Cl)cc2)cc1)C(=O)O` [fenofibric acid], the “log10 S [M]” value is reported as -2.21 M.
Take `CCCCN(CCCC)CCC(O)c1cc2c(Cl)cc(Cl)cc2c2cc(C(F)(F)F)ccc12` (stereo not shown) [halofantrine]: the “log10 S [M]” value is recorded as -0.70 M.
Consider `CCC(C)n1ncn(-c2ccc(N3CCN(c4ccc(OCC5COC(Cn6cncn6)(c6ccc(Cl)cc6Cl)O5)cc4)CC3)cc2)c1=O` (stereo not shown) [itraconazole], for which the “log10 S [M]” value was -3.59 M.
Regarding `COc1ccc2cc([C@H](C)C(=O)O)ccc2c1` [naproxen], the “log10 S [M]” value was -1.38 M.
For the molecule `O=C(Nc1ccc([N+](=O)[O-])cc1Cl)c1cc(Cl)ccc1O` [niclosamide], the “log10 S [M]” value was -2.06 M.
Turning to `O=C(C1CCCCC1)N1CC(=O)N2CCc3ccccc3C2C1` (stereo not shown) [praziquantel], the “log10 S [M]” value is listed as -1.38 M.
In the case of bezafibrate, the “log10 S [M]” value is reported as -3.22 M.

Still in this data set, the particulars now being: decadic logarithm of molar solubility in MCTs; ref Wyttenbach, N. 2007, AAPS PharmSci360 Poster W4355; cited from earlier work.
As to `Nc1ccc(S(=O)(=O)Nc2nccs2)cc1` [sulfathiazole], the “log10 S [M]” value was -3.93 M.

The same data set, now with this note: decadic logarithm of molar solubility in MCTs; ref Wyttenbach, N., Niederquell, A., Ectors, P. and Kuentz, M., 2022; cited from earlier work.
As for `c1ccc(-c2ccc(C(c3ccccc3)n3ccnc3)cc2)cc1` (stereo not shown) [bifonazole], the “log10 S [M]” value is -1.97 M.
Consider `NC(=O)N1c2ccccc2C=Cc2ccccc21` [carbamazepine], for which the “log10 S [M]” value was -2.09 M.
Take `COc1ccccc1OCCNCC(O)COc1cccc2[nH]c3ccccc3c12` (stereo not shown) [carvedilol]: the “log10 S [M]” value is listed as -2.46 M.
For the molecule `Cc1ccc(-c2cc(C(F)(F)F)nn2-c2ccc(S(N)(=O)=O)cc2)cc1` [celecoxib], the “log10 S [M]” value was -1.66 M.
As for `O=c1[nH]c2ccccc2n1C1CCN(CCCC(c2ccc(F)cc2)c2ccc(F)cc2)CC1` [pimozide], the “log10 S [M]” value is -2.82 M.
